Patent US7285555B2, “6-aryl-7-halo-imidazo[1,2-a]pyrimidines as anticancer agents” (Wyeth Holdings Corporation, priority 2003, dated 2007)

Assays:
[1] = system: KB-8-5 cells; test: SRB cytotoxicity test procedure with KB-8-5 cells; type: cell-based, human; conditions: SRB assay
Excerpt: (§1) Human cancer cell lines, unless otherwise noted, are obtained from the American Type Culture Collection (Rockville, Md.). The following drug-sensitive parental cell lines, and their derived drug-resistant counterparts, are obtained from the originators as listed: (a) S1 (parental line from a subclone of human colon carcinoma line LS174T) and derived S1-M1-3.2 (herein called S1-M1) which expresses the MXR drug transporter protein, are provided by Dr. L. Greenberger, Wyeth Research (Rabindran, S. K., He, H., Singh, M., Brown, E., Collins, K. I., Annable, T., and Greenberger, L. M. Reversal of a novel multidrug resistance mechanism in human colon carcinoma cells by fumitremorgin C. Cancer Res., 58: 5850-5858,1998); (b) parental HL-60 human promyelocytic leukemia line and derived HL-60/ADR, which expresses the MRP1 drug transporter protein, are provided by Dr. M. Center, University of Kansas (McGrath, T., and Center, M. S. Adriamycin resistance in HL60 cells in the absence of detectable P-glycoprotein. Biochem. Biophys. […] J. Biol. Chem., 261: 7762-7770, 1986) via Dr. L. Greenberger, Wyeth Research.
The SRB standard cytotoxicity assay is done according to previously reported methods (Discafani, C. M., Carroll, M. L., Floyd Jr., M. B. F., Hollander, I. J., Husain, Z., Johnson, B. D., Kitchen, D., May, M. K., Malo, M. S., Minnick Jr., A. A., Nilakantan, R., Shen, R., Wang Y-F., Wissner, A., Greenberger, L. M. Irreversible inhibition of epidermal growth factor receptor tyrosine kinase with in vivo activity by N-[4-[3-bromophenyl)amino]-6-quinaxolinyl]-2-butynamide (CL-387,785). Biochem. Pharmacol., 57: 917-925, 1999). Briefly, cells are plated in 100 μL of medium in 96-well flat-bottom microtiter plates in the morning of day 1 and allowed to adhere to the plates for 2-6 hr. Compounds are serially diluted into medium as 2× stocks and 100 μL of these stocks are added to cells in duplicate. Compounds are incubated with cells for 3 days. At the end of the incubation period the sulforhodamine B (SRB) assay, which measures protein content as an assessment of cell survival, is performed as described previously (Skehan, P., Storeng, R., Scudiero, D., Monks, A., McMahon, J., Vistica, D., Warren, J. T., Bokesch, H., Kenney, S., Boyd, M. R. New calorimetric cytotoxicity assay for anticancer-drug screening. J. Natl. Cancer Inst., 82:1107-1112, 1990) with some modifications. Medium is gently decanted from plates and replaced with 200 μL per well of cold serum-free medium containing a final concentration of 10% trichloroacetic acid. The plates are incubated for 1 hr at 40, washed 5 times in cold distilled water, and air-dried overnight. […] Absorbance is read on a Victor V multi-label plate reader (Perkin Elmer, Gaithersburg, Md.). […]

[2] = system: KB cells; test: SRB cytotoxicity test procedure with KB cells; type: cell-based; conditions: Homo sapiens, SRB assay, means of 2 independent experiments
Excerpt: Human cancer cell lines, unless otherwise noted, are obtained from the American Type Culture Collection (Rockville, Md.). […]
The SRB standard cytotoxicity assay is done according to previously reported methods (Discafani, C. M., Carroll, M. L., Floyd Jr., M. B. F., Hollander, I. J., Husain, Z., Johnson, B. D., Kitchen, D., May, M. K., Malo, M. S., Minnick Jr., A. A., Nilakantan, R., Shen, R., Wang Y-F., Wissner, A., Greenberger, L. M. Irreversible inhibition of epidermal growth factor receptor tyrosine kinase with in vivo activity by N-[4-[3-bromophenyl)amino]-6-quinaxolinyl]-2-butynamide (CL-387,785). […] Absorbance is read on a Victor V multi-label plate reader (Perkin Elmer, Gaithersburg, Md.). […]

[3] = system: KB-V1 cells; test: SRB cytotoxicity test procedure with KB-V1 cells; type: cell-based, human; conditions: SRB assay
Excerpt: as §1
The SRB standard cytotoxicity assay is done according to previously reported methods (Discafani, C. M., Carroll, M. L., Floyd Jr., M. B. F., Hollander, I. J., Husain, Z., Johnson, B. D., Kitchen, D., May, M. K., Malo, M. S., Minnick Jr., A. A., Nilakantan, R., Shen, R., Wang Y-F., Wissner, A., Greenberger, L. M. Irreversible inhibition of epidermal growth factor receptor tyrosine kinase with in vivo activity by N-[4-[3-bromophenyl)amino]-6-quinaxolinyl]-2-butynamide (CL-387,785). Biochem. Pharmacol., 57: 917-925, 1999). Briefly, cells are plated in 100 μL of medium in 96-well flat-bottom microtiter plates in the morning of day 1 and allowed to adhere to the plates for 2-6 hr. Compounds are serially diluted into medium as 2× stocks and 100 μL of these stocks are added to cells in duplicate. Compounds are incubated with cells for 3 days. At the end of the incubation period the sulforhodamine B (SRB) assay, which measures protein content as an assessment of cell survival, is performed as described previously (Skehan, P., Storeng, R., Scudiero, D., Monks, A., McMahon, J., Vistica, D., Warren, J. T., Bokesch, H., Kenney, S., Boyd, M. R. New calorimetric cytotoxicity assay for anticancer-drug screening. J. Natl. Cancer Inst., 82:1107-1112, 1990) with some modifications. Medium is gently decanted from plates and replaced with 200 μL per well of cold serum-free medium containing a final concentration of 10% trichloroacetic acid. The plates are incubated for 1 hr at 40, washed 5 times in cold distilled water, and air-dried overnight. The fixed cells are stained for 10 min with 80 μL per well of 0.04% SRB solution prepared in 1% glacial acetic acid. Staining solution is decanted, plates are washed 5 times in 1% glacial acetic acid, and then air-dried until completely dry. Stained cell product is dissolved in 150 μL per well of 10 mM Trizma Base with shaking for 20 minutes. Absorbance is read on a Victor V multi-label plate reader (Perkin Elmer, Gaithersburg, Md.).
The KB lines express different amounts of the P-glycoprotein (MDR1) membrane pump which produces resistance to the action of many cytotoxic compounds, including paclitaxel and vincristine. The parental KB line expresses no P-glycoprotein, KB-8-5 expresses moderate levels of the protein, and KB-V1 expresses very high levels.

[4] = system: COLO 205 cells; test: MTS cytotoxicity test procedure with COLO 205 cells; type: cell-based; conditions: Homo sapiens, 72 h, MTS assay, three days of culture
Protocol: The MTS assay, which is sold in kit form by Promega (Madison, Wis.; CellTiter 96 AQueous Non-Radioactive Cell Proliferation Assay), is based on the conversion by viable cells, but not by dead cells, of the tetrazolium salt, MTS (3-(4,5-dimethylthiazol-2-yl)-5-(3-carboxymethoxyphenyl)-2-(4-sulphophenyl)-2H-tetrazolium, inner salt), into a water-soluble colored formazan which is detected by spectrophotometry. Compounds are tested at nine concentrations, in order to determine IC50 values. For the test procedure, cells are harvested by trypsinization (or, in the case of non-adherent cells, by simple resuspension), washed, counted and distributed to wells of 96-well flat-bottom microtiter plates at 1000 cells per well in 200 μL of medium. In addition, one row of wells on a separate plate receives cells as above (“time 0” plate). All plates are incubated at 370 in humidified 5% CO2 in air for about 24 hr.
On day 2, compounds for test are diluted and added to wells. Compounds are dissolved in DMSO at 10 mg/mL. For each compound, nine serial 2-fold dilutions are prepared in DMSO. Ten μL of each dilution in DMSO is transferred to 100 μL of medium, mixed well, and then 5 μL of this dilution is transferred in quadruplicate to wells containing cells. The final high concentration of each compound is typically 1-5 μM. Plates are returned to the incubator for three days. At the time of drug addition to the experimental plates, the MTS assay is run on the “time 0” plate. This gives the “time 0 MTS value” which is related to the number of viable cells per well at the time of drug addition.
After three days of culture with test compounds (day 5 overall), the MTS assay is done on all wells of the experimental plates. The absorbance values of the quadruplicate sample wells are averaged and divided by the average of the “time 0” values. The average of control wells without drug, divided by the average “time 0” value, gives the maximal relative increase in MTS color yield due to cell growth during the final three days of culture. The average of control wells with high drug concentration, divided by the “time 0” value, gives the minimal relative color yield for cells that were completely killed. The nine values for each compound are plotted against concentration, and the concentration that produces a relative color yield half way between the maximum and minimum is taken as the IC50 value.
COLO 205 is a human colon carcinoma cell line that is used for comparative testing of the examples of this invention and several reference compounds (Table 1). This line is sensitive to paclitaxel and vincristine.

Compound: CN(C)CCCOc1cc(F)c(-c2c(Cl)nc3nccn3c2NCC(F)(F)F)c(F)c1 [Example 4, 7-chloro-6-{4-[3-(dimethylamino)propoxy]-2,6-difluorophenyl}-N-(2,2,2-trifluoroethyl)imidazo[1,2-a]pyrimidin-5-amine]
- IC50 ([1]; Homo sapiens, KB 8.5 cells, means of 2 independent experiments): 59 nM
- Ratio 8.5/KB ([1]; IC50 on KB 8.5 cells/IC50 on KB cells): 2.5
- melting point: 52 to 55 °C
- IC50 [2]: 24 nM
- IC50 ([3]; Homo sapiens, KB-V1, KB VI cells, means of 2 independent experiments): 2390 nM
- Ratio VI/KB ([3]; IC50 on KB VI cells/IC50 on KB cells): 99
- IC50 [4]: 88 nM
